Measured values published in patent US20250009731A1, “TOLL-LIKE RECEPTOR THERAPY COMBINATIONS WITH CBL-B INHIBITOR COMPOUNDS” (NURIX THERAPEUTICS, INC., priority 2021, published 2025).

Experiments:
[1] = system: CT26 tumors; test: CT26 tumor model with depleting antibodies for CD4+, CD8+ or NK cells; type: in vivo, mice; details: 30 mg/kg PO QD Day 9 to Day 25; tumor volume at Day 25
Description: Tumor volume at Day 25 is indicated. CD8+ T-cell or NK cell depletion abrogates Compound 23 activity. Stats calculated with Mann-Whitney (Vehicle vs. Compound 23) or one-way ANOVA with Dunn's multiple comparisons test (Compound 23 vs. Depletion groups); * P≤0.05, ** P≤0.01, **** P≤0.0001 The efficacy of Compound 23 on tumors is linked to CD8+ T function and on NK cell function.

[2] = system: 4T1 tumors; test: Flow cytometry of tumor and blood from orthotopic 4T1 tumor-bearing mice; type: in vivo
Description: Tumor and blood samples were harvested on Day 28 and analyzed by Flow Cytometry.

[3] = system: CT26 tumors; test: CT26 colon carcinoma tumor model, tumor volume; type: in vivo, mice; details: oral 10 mg/kg or 30 mg/kg, Day 7 to Day 32; tumor volume at Day 25
Procedure: Mice bearing tumors on their left and right flanks were treated from Day 7 to Day 32 with oral Compound 23 at 10 mg/kg or 30 mg/kg or vehicle. Volumes at Day 25 are indicated. Statistics were calculated with one-way ANOVA and Dunn's multiple comparisons test ** P<0.01.

[4] = system: total primary human T-cells; test: IL-2 and IFN-γ release by stimulated total primary human T-cells (ELISA); type: cell-based; details: plate bound anti-CD3, with and without CD28 co-stimulation, lesser degree without co-stimulation
Procedure: Cells were stimulated with plate bound anti-CD3 (right) or anti-CD3/anti-CD28 (left) in presence or absence of the indicated concentration of Compound 23. Release of IL-2 or IFN-γ were assessed by ELISA. Compound 23 inhibition of Cbl-b enhanced IL-2 and IFN-γ secretion in primary human T cells stimulated with anti-CD3 antibodies, in both the presence and absence of CD28 co-stimulation, although to a lesser degree in the absence of co-stimulation.

[5] = system: 4T1 tumors; test: 4T1 triple negative mammary carcinoma metastatic model with primary tumor resection, survival; type: in vivo, mice; details: oral 30 mg/kg daily
Description: Another in vivo study evaluated the ability of Compound 23 treatment, started before the primary tumor resection, to eradicate 4T1 breast carcinoma metastatic disease. The 4T1 triple negative mammary carcinoma is a transplantable tumor cell line that is highly tumorigenic and invasive and, unlike most tumor models, spontaneously metastasizes from a primary tumor growing in the mammary gland to multiple distant sites including lymph nodes, blood, liver, lung, brain, and bone. Tumor cells are easily transplanted into the mammary glands so that the primary tumor grows in the anatomically relevant site. The progressive spread of 4T1 metastases to other organs is very similar to that of human mammary cancer. Animals die from disseminated metastatic disease regardless of resection of the primary tumor (Pulaski et al., 2000, Current Protocols in Immunology 39(1):20.2.1-20.2.16). […] Beginning on Day 7, tumor volumes were measured twice weekly until they reached a mean tumor volume of 145 mm^3 when the primary tumors were resected on Day 14 or 15 (dotted line). Median survival times were calculated for each group and body weights were monitored until the end of the study on Day 140. Body weights were measured twice weekly then once weekly starting Day 47. […] Statistical significance of differences in conditional survival between groups was evaluated using the Log-rank (Mantel-Cox) test. […] Median survival is reported as undefined for the Compound 23 group, as survival exceeds 50% at Day 140.

[6] = system: CT26 tumors; test: Flow cytometry of tumor-infiltrating immune cells in CT26 tumors; type: in vivo, mice; details: 30 mg/kg daily PO, 19 doses
Procedure: CT26 tumors were harvested after 19 doses of Compound 23 or vehicle and tumor-infiltrating immune cell density and phenotype was assessed by Flow Cytometry.

[7] = system: CT26 tumors; test: nCounter Mouse PanCancer Immune Profiling Panel gene expression in CT26 tumors; type: in vivo, mice; details: vs vehicle
Description: In this example, the gene expression changes induced in tumors from mice treated with Compound 23 studies were as investigated. To perform this assessment, the nCounter PanCancer Immune Profiling Panel was used, which is a multiplexed gene expression panel developed by NanoString Technologies that measures expression of 770 immune and cancer related genes (Eastel et al., 2019, Expert Review of Molecular Diagnostics, 19(7):591-598). This technology is a unique gene expression tool that covers many important features of the immune response in the tumor microenvironment and was used to facilitate the understanding of immune related changes in tumors treated with Compound 23.
In FIG. 4A, CT26 tumors were harvested after 4 doses and after 19 doses of Compound 23 or vehicle and gene expression was directly measured using the nCounter Mouse PanCancer Immune Profiling Panel. Analysis was performed using the nSolver 4.0 and the nCounter Advanced Analysis software comparing gene expression in Compound 23 to vehicle treated tumors. […] Statistical significance of differences in mean cell type scores between Compound 23 and vehicle treated groups was evaluated using Mann-Whitney test (* P≤0.05, ** P≤0.01, and *** P≤0.001).
(§1) In FIG. 4B, CT26 tumors were harvested after 4 treatment doses and gene expression was directly measured using the nCounter Mouse PanCancer Immune Profiling Panel. Analysis was performed using the nSolver 4.0 and the nCounter Advanced Analysis software comparing gene expression in Compound 23 to vehicle treated tumors. As indicated in the titles above each panel, scatter plots of individual Pathway Signature Scores of vehicle and Compound 23 treated tumors are shown. Statistical significance of differences in Pathway Signature Scores between Compound 23 and vehicle treated groups was evaluated using Mann-Whitney test (* P≤0.05, ** P≤0.01, and *** P≤0.001).
as §1, with “FIG. 4C,” for “FIG. 4B,”, “after 19” for “after 4”

## C[C@H]1CCCN(Cc2cc3c(c(C(F)(F)F)c2)CN(c2cccc([C@]4(c5nncn5C)C[C@@H](C)C4)c2)C3=O)C1 [Compound 23]
[1]
  effect of CD8+ T-cell depletion on antitumor activity: abrogates
  effect of NK cell depletion (anti-asialo-GM1) on antitumor activity: abrogates
[2]; 30 mg/kg daily PO Day 9 to Day 28, FIG. 6A
  frequency of tumor gp70 antigen-specific CD8+ T-cells (AH1 Dextramer+ CD8+ T-cells) in 4T1 tumors: increased
[2]; 30 mg/kg daily PO Day 9 to Day 28, FIG. 6B
  frequency of gp70 antigen-specific CD8+ T-cells with exhaustion phenotype (PD-1+ LAG3+) in 4T1 tumors: decreased
[2]; 30 mg/kg daily PO Day 9 to Day 28, FIG. 6C
  frequency of circulating CD8+ T-cells with activated phenotype (PD-1+) in blood: increased
[2]; 30 mg/kg daily PO Day 9 to Day 28, FIG. 6D
  frequency of circulating CD8+ T-cells with memory phenotype (CD44+CD27+CD127+) in blood: increased
[3]
  anti-tumor activity, CT26 colon carcinoma model: significant anti-tumor activity
[4]
  IFN-γ secretion: enhanced
  IL-2 secretion: enhanced
[5]
  survival at Day 140: exceeds 50%
[5]; Day 8 to Day 46
  anti-tumor activity, metastatic triple negative breast tumor model 4T1: significant anti-tumor activity
[5]; Day 8 to Day 46, primary tumor resected Day 14 or 15, Log-rank test
  median survival time compared to vehicle control: significantly increased
[5]; Day 140
  mice that remained tumor free until the end of the study: 54%
[5]; study end Day 140
  median survival: undefined
[6]; FIG. 7A
  number of tumor-infiltrating leukocytes (TIL) per gram of tumor: increased
[6]; FIG. 7B
  frequency of total CD3+ T cells as a percentage of CD45+ leukocytes: increased
[6]; FIG. 7C
  frequency of total CD8+ T cells as a percentage of CD45+ leukocytes: increased
[6]; FIG. 7D
  number of total CD8+ T-cells per gram of tumor: increased
[6]; FIG. 7E
  frequency of CD8+ T-cells that express the activation marker CD29 (CD29+): increased
[6]; FIG. 7F
  CD8+ T-cells to Tregs ratio: increased
[6]; FIG. 7G
  CD8+ effector T-cells (PD1+) to Tregs ratio: increased
[6]; FIG. 7H
  frequency of activated NK cells (CD11b+) that express Granzyme+: increased
[6]; FIG. 7I
  frequency of activated NK cells (CD27+CD11 b+) that express Granzyme+: increased
[7]; after 4 doses, oral 30 mg/kg daily, P=0.1061
  cytotoxic cells score: clear trend of increased infiltration
[7]; after 4 doses, oral 30 mg/kg daily, P=0.6679
  tumor infiltrating lymphocytes (TIL) score: clear trend of increased infiltration
[7]; after 4 doses, oral 30 mg/kg daily, P=0.7551
  T-cell score: clear trend of increased infiltration
[7]; after 4 doses
  pathway scores of innate immune signaling: dendritic cell function, macrophage function, chemokine receptors and pathways: significant gene expression changes
[7]; after 4 doses, trend for increases
  pathway scores of T-cell, B cell, NK cell and adaptive immune function: not significant
[7]; after 19 doses, oral, P=0.0002
  cytotoxic cell score: significant increases
[7]; after 19 doses, oral, P=0.0044
  tumor infiltrating lymphocytes (TIL) score: significant increases
[7]; after 19 doses, oral, P=0.0098
  T-cell score: significant increases
[7]; after 19 doses
  immune related pathway scores: dendritic cell, macrophage, T-cell, NK cell, B cell, interferon function, adaptive immunity, chemokine and receptor, cytokine and receptor: significantly enhanced function
